{"source": "patent US20200323882A1", "about": "“PHLIP®-MEDIATED TARGETING OF CORTICOSTEROIDS TO DISEASED TISSUE” (priority 2019, published 2020)", "key": {"RPMI 8226 myeloma cells": {"tested_on": "RPMI 8226 myeloma cells", "conditions": "5 μM pHLIP-Dexa, 2 hrs without FBS, viability after 22 hours", "experimental": "Myeloma cancer cells were loaded in the wells (30,000 cells/well) and incubated overnight. […] Cell viability was assessed after 22 hours using the colorimetric CellTiter 96 AQueous One Solution Cell Proliferation Assay by absorption measurement at 490 nm."}, "[1]": {"tested_on": "MCP-1 (monocyte chemoattractant protein)", "experimental": "CD-1 male mouse, 6 to 7 weeks and 32-38 grams from Charles River Labs were used in the study. […] Briefly, mice were allowed optimal inhalation and passive gravitational flow of LPS directly to the lungs. 50 μg (in 50 μl) LPS was instilled into the nares in five boluses of 10 μl each. […] For processing, a mammalian protease inhibitor cocktail (diluted 1:100 in PBS) was added to each lung sample. Lungs were homogenized by Beadbeater with 2 mm zirconia beads for 1.5 minutes. Homogenates were spun at 10K for 10 minutes at 4° C., and supernatants collected for analysis. Quantikine kit (R&D Systems) assays for JE/MCP-1 were performed as per kit protocols. For the lungs samples, MCP-1 content was expressed as pg/mg of protein. Protein measurements were performed by Pierce™ BCA Protein Assay Kit according to the protocol provided by a manufacturer."}, "[2]": {"tested_on": "oxazolone-induced contact hypersensitivity", "conditions": "24 hrs after oxazolone challenge; pHLIP-Dexa 4.6 mg/kg i.p. vs Dexa 0.46 mg/kg i.p. and 20 mg/kg orally", "experimental": "CD-1 male mouse, 8 to 10 weeks from Charles River Labs were used in the study. Contact hypersensitivity was induced by sensitization and challenge with oxazalone as follows: on day 1, mice are sensitized to oxazalone by application (50 μL; 3% in 100% ethanol) to the abdominal area (previously shaved) and to each footpad (5 μL). On day 6, mice were exposed to oxazalone (20 μL; 1% in 100% ethanol) by application to each side of right ear. Twenty-four hrs after challenge (day 7), dermatitis severity was measured using a visual scale: 0—no evidence of erythema or swelling; 1—mild swelling; 2—mild erythema and moderate selling; 3—erythema and severe swelling. Ear thickness was measured using a micrometer once, prior to sensitization on day 1 (baseline) and once, after dosing on day 7 of the study."}}, "note": "Where two headings read alike, the source gives them in different places."}
{"substance": "pHLIP-(PEG4)-dexamethasone [pHLIP-Dexa]", "values": [{"measurement": "myeloma cancer cell viability, pHLIP-Dexa alone", "setting": "RPMI 8226 myeloma cells", "result": "induced myeloma cancer cells death"}, {"measurement": "reduction of level of MCP-1 protein", "setting": "[1]; dose 4.6 mg/kg in PBS/5% DMSO, 30 minutes after LPS", "result": "very effective in reducing level of MCP-1 protein"}, {"measurement": "reduction of level of MCP-1 protein", "setting": "[1]; high dose 11.4 mg/kg in PBS/5% DMSO", "result": "less effective"}, {"measurement": "decrease of thickness of animal ear", "setting": "[2]", "result": "as effective as high and low doses of Dexa"}, {"measurement": "reduction of inflammation (dermatitis severity, scale 0 to 3)", "setting": "[2]", "result": "as effective as high and low doses of Dexa"}]}
